Experimental findings from patent US6630343B1, “Hepatitis C virus culture system” (priority 1999, dated 2003) are described below.

Starred links: 1 amine or outer side, 2 acyl side, 3 side chain; linkers in the order of their positions; H or OH if unused. Positions of bridges follow the written chain, without caps; N, C: chain ends. Non-standard residues stand in square brackets, D forms with d. Residues, ends and D or L forms follow the SMILES beside them. Chains are numbered I, II in the order given. Actinocin(9to1) = Cc1c2oc3c(C)ccc(C(=O)[*:1])c3nc-2c(C(=O)[*:2])c(N)c1=O; NMeV = CN[C@H](C(=O)O)C(C)C; Sar = CNCC(=O)O

The subject of assay [1] is Huh 7 cell clones 9-13 and 8-1. Description: [3H] uridine labeling of RNA in the presence of dactinomycin: cellular RNA synthesis. The assay is classed as cell-based, human. The settings on record: 4 μg/ml dactinomycin, 16 hrs. On the procedure: (§1) To confirm this assumption, cells were incubated with [^3H] uridine in the presence of dactinomycin, the radioactively labeled RNAs were extracted, separated by means of denaturing agarose gel electrophoresis and analyzed with the aid of a common Bio-Imager using a [^3H]-sensitive screen. For this purpose approx. 5×10^5 cells of the clones 9-13 and 8-1 were incubated at a time with 100 μCi [^3H] uridine for 16 hrs. in the absence (−) or presence (+) of 4 μg/ml of dactinomycin (Dact). Following this labeling reaction the total RNA was prepared and analyzed by means of formaldehyde-agarose gel electrophoresis. Only 1/10 of the total RNA is illustrated in the first two lanes. The radioactively labeled RNA was visualized using a BAS-2500 Bio-Imager (Fuji).

Another assay relates to HCV RNA. Description: [3H] uridine labeling of RNA in the presence of dactinomycin: HCV-RNA replication. The assay is classed as cell-based, hepatitis C virus. The settings on record: 4 μg/ml dactinomycin, 16 hrs, clone 9-13. On the procedure:
as §1

Take `Cc1c2oc3c(C)ccc(C(=O)N[C@@H]4C(=O)N[C@H](C(C)C)C(=O)N5CCC[C@H]5C(=O)N(C)CC(=O)N(C)[C@@H](C(C)C)C(=O)O[C@@H]4C)c3nc-2c(C(=O)N[C@@H]2C(=O)N[C@H](C(C)C)C(=O)N3CCC[C@H]3C(=O)N(C)CC(=O)N(C)[C@@H](C(C)C)C(=O)O[C@@H]2C)c(N)c1=O` [dactinomycin] (I: T[dV]P[Sar][NMeV] / II: T[dV]P[Sar][NMeV]; ester I:1-I:C, II:1-II:C; linker I:N-II:N via Actinocin(9to1)): in assay [1], the “synthesis of cellular RNA” value was “inhibited”. Besides, the “influence on the replication of the HCV RNA” value in the assay with HCV RNA is on record as “no influence”.
